Assay results from ChEMBL document CHEMBL5724914, “Linking interpersonal differences in gut microbiota composition and drug biotransformation activity” (2024).

Experiment: (§1) The drug is tested on Z-025 corresponding to rabbit gut metagenome with ENA study accession number: PRJEB37062 and ENA sample accession number: ERS12561824 for biotransformation under anaerobic condition. The drug concentrations were measured over 9 timepoints collected between 0 and 24 hours of incubation by liquid-chromatography-coupled mass spectrometry (LC–MS)
Conditions: 2 µM
Note: call rule not given here.

Row | Bacterial Biotransformation | SMILES
1 | Compound NOT metabolized | CCCCCCOC(=O)/N=C(/N)c1ccc(NCc2nc3cc(C(=O)N(CCC(=O)OCC)c4ccccn4)ccc3n2C)cc1.CS(=O)(=O)O [DABIGATRAN ETEXILATE MESYLATE]
2 | Compound NOT metabolized | COC(=O)[C@H]1[C@H]2C[C@@H]3c4[nH]c5cc(OC)ccc5c4CCN3C[C@H]2C[C@@H](OC(=O)c2cc(OC)c(OC)c(OC)c2)[C@@H]1OC [RESERPINE]
3 | Compound NOT metabolized | NC(=O)N1c2ccccc2CC(=O)c2ccccc21 [OXCARBAZEPINE]

Experiment: as §1, with “Z-023” for “Z-025”, “to” for “to rabbit gut”, “ERS12561822” for “ERS12561824”
Conditions: 2 µM

Row | Bacterial Biotransformation | SMILES
4 | Compound NOT metabolized | CCCCCCOC(=O)/N=C(/N)c1ccc(NCc2nc3cc(C(=O)N(CCC(=O)OCC)c4ccccn4)ccc3n2C)cc1.CS(=O)(=O)O [DABIGATRAN ETEXILATE MESYLATE]
5 | Compound metabolized | COC(=O)[C@H]1[C@H]2C[C@@H]3c4[nH]c5cc(OC)ccc5c4CCN3C[C@H]2C[C@@H](OC(=O)c2cc(OC)c(OC)c(OC)c2)[C@@H]1OC [RESERPINE]
6 | Compound metabolized | NC(=O)N1c2ccccc2CC(=O)c2ccccc21 [OXCARBAZEPINE]

Experiment: as §1, with “Z-022” for “Z-025”, “mouse” for “rabbit”, “ERS12561821” for “ERS12561824”
Conditions: 2 µM

Row | Bacterial Biotransformation | SMILES
7 | Compound NOT metabolized | CCCCCCOC(=O)/N=C(/N)c1ccc(NCc2nc3cc(C(=O)N(CCC(=O)OCC)c4ccccn4)ccc3n2C)cc1.CS(=O)(=O)O [DABIGATRAN ETEXILATE MESYLATE]
8 | Compound metabolized | COC(=O)[C@H]1[C@H]2C[C@@H]3c4[nH]c5cc(OC)ccc5c4CCN3C[C@H]2C[C@@H](OC(=O)c2cc(OC)c(OC)c(OC)c2)[C@@H]1OC [RESERPINE]
9 | Compound metabolized | NC(=O)N1c2ccccc2CC(=O)c2ccccc21 [OXCARBAZEPINE]

Experiment: as §1, with “Z-021” for “Z-025”, “to” for “to rabbit gut”, “ERS12561820” for “ERS12561824”
Conditions: 2 µM

Row | Bacterial Biotransformation | SMILES
10 | Compound NOT metabolized | CCCCCCOC(=O)/N=C(/N)c1ccc(NCc2nc3cc(C(=O)N(CCC(=O)OCC)c4ccccn4)ccc3n2C)cc1.CS(=O)(=O)O [DABIGATRAN ETEXILATE MESYLATE]
11 | Compound metabolized | COC(=O)[C@H]1[C@H]2C[C@@H]3c4[nH]c5cc(OC)ccc5c4CCN3C[C@H]2C[C@@H](OC(=O)c2cc(OC)c(OC)c(OC)c2)[C@@H]1OC [RESERPINE]
12 | Compound NOT metabolized | NC(=O)N1c2ccccc2CC(=O)c2ccccc21 [OXCARBAZEPINE]

Experiment: as §1, with “Z-011” for “Z-025”, “mouse” for “rabbit”, “ERS12561811” for “ERS12561824”
Conditions: 2 µM

Row | Bacterial Biotransformation | SMILES
13 | Compound NOT metabolized | CCCCCCOC(=O)/N=C(/N)c1ccc(NCc2nc3cc(C(=O)N(CCC(=O)OCC)c4ccccn4)ccc3n2C)cc1.CS(=O)(=O)O [DABIGATRAN ETEXILATE MESYLATE]
14 | Compound NOT metabolized | COC(=O)[C@H]1[C@H]2C[C@@H]3c4[nH]c5cc(OC)ccc5c4CCN3C[C@H]2C[C@@H](OC(=O)c2cc(OC)c(OC)c(OC)c2)[C@@H]1OC [RESERPINE]
15 | Compound NOT metabolized | NC(=O)N1c2ccccc2CC(=O)c2ccccc21 [OXCARBAZEPINE]

Experiment: as §1, with “Z-006” for “Z-025”, “mouse” for “rabbit”, “ERS12561806” for “ERS12561824”
Conditions: 2 µM

Row | Bacterial Biotransformation | SMILES
16 | Compound NOT metabolized | CCCCCCOC(=O)/N=C(/N)c1ccc(NCc2nc3cc(C(=O)N(CCC(=O)OCC)c4ccccn4)ccc3n2C)cc1.CS(=O)(=O)O [DABIGATRAN ETEXILATE MESYLATE]
17 | Compound NOT metabolized | COC(=O)[C@H]1[C@H]2C[C@@H]3c4[nH]c5cc(OC)ccc5c4CCN3C[C@H]2C[C@@H](OC(=O)c2cc(OC)c(OC)c(OC)c2)[C@@H]1OC [RESERPINE]
18 | Compound NOT metabolized | NC(=O)N1c2ccccc2CC(=O)c2ccccc21 [OXCARBAZEPINE]

Experiment: as §1, with “WLS-098” for “Z-025”, “human” for “rabbit”, “ERS12561754” for “ERS12561824”
Conditions: 2 µM

Row | Bacterial Biotransformation | SMILES
19 | Compound metabolized | COC(=O)[C@H]1[C@H]2C[C@@H]3c4[nH]c5cc(OC)ccc5c4CCN3C[C@H]2C[C@@H](OC(=O)c2cc(OC)c(OC)c(OC)c2)[C@@H]1OC [RESERPINE]
20 | Compound NOT metabolized | NC(=O)N1c2ccccc2CC(=O)c2ccccc21 [OXCARBAZEPINE]

Experiment: as §1, with “WLS-052” for “Z-025”, “human” for “rabbit”, “ERS12561747” for “ERS12561824”
Conditions: 2 µM

Row | Bacterial Biotransformation | SMILES
21 | Compound NOT metabolized | COC(=O)[C@H]1[C@H]2C[C@@H]3c4[nH]c5cc(OC)ccc5c4CCN3C[C@H]2C[C@@H](OC(=O)c2cc(OC)c(OC)c(OC)c2)[C@@H]1OC [RESERPINE]
22 | Compound NOT metabolized | NC(=O)N1c2ccccc2CC(=O)c2ccccc21 [OXCARBAZEPINE]

Experiment: as §1, with “WLS-039” for “Z-025”, “human” for “rabbit”, “ERS12561746” for “ERS12561824”
Conditions: 2 µM

Row | Bacterial Biotransformation | SMILES
23 | Compound metabolized | COC(=O)[C@H]1[C@H]2C[C@@H]3c4[nH]c5cc(OC)ccc5c4CCN3C[C@H]2C[C@@H](OC(=O)c2cc(OC)c(OC)c(OC)c2)[C@@H]1OC [RESERPINE]
24 | Compound NOT metabolized | NC(=O)N1c2ccccc2CC(=O)c2ccccc21 [OXCARBAZEPINE]

Experiment: as §1, with “WLS-027” for “Z-025”, “human” for “rabbit”, “ERS12561744” for “ERS12561824”
Conditions: 2 µM

Row | Bacterial Biotransformation | SMILES
25 | Compound metabolized | COC(=O)[C@H]1[C@H]2C[C@@H]3c4[nH]c5cc(OC)ccc5c4CCN3C[C@H]2C[C@@H](OC(=O)c2cc(OC)c(OC)c(OC)c2)[C@@H]1OC [RESERPINE]
26 | Compound NOT metabolized | NC(=O)N1c2ccccc2CC(=O)c2ccccc21 [OXCARBAZEPINE]

Experiment: as §1, with “WLS-010” for “Z-025”, “human” for “rabbit”, “ERS12561743” for “ERS12561824”
Conditions: 2 µM

Row | Bacterial Biotransformation | SMILES
27 | Compound metabolized | COC(=O)[C@H]1[C@H]2C[C@@H]3c4[nH]c5cc(OC)ccc5c4CCN3C[C@H]2C[C@@H](OC(=O)c2cc(OC)c(OC)c(OC)c2)[C@@H]1OC [RESERPINE]

Conditions: human gut metagenome, 24 h, 2 µM

Row | Bacterial Biotransformation | SMILES
28 | Compound NOT metabolized | CCCCCCOC(=O)/N=C(/N)c1ccc(NCc2nc3cc(C(=O)N(CCC(=O)OCC)c4ccccn4)ccc3n2C)cc1.CS(=O)(=O)O [DABIGATRAN ETEXILATE MESYLATE]
29 | Compound metabolized | COC(=O)[C@H]1[C@H]2C[C@@H]3c4[nH]c5cc(OC)ccc5c4CCN3C[C@H]2C[C@@H](OC(=O)c2cc(OC)c(OC)c(OC)c2)[C@@H]1OC [RESERPINE]
30 | Compound NOT metabolized | NC(=O)N1c2ccccc2CC(=O)c2ccccc21 [OXCARBAZEPINE]

Conditions: human gut metagenome, 24 h, 2 µM
Remark: another data set of the same source

Row | Bacterial Biotransformation | SMILES
31 | Compound NOT metabolized | CCCCCCOC(=O)/N=C(/N)c1ccc(NCc2nc3cc(C(=O)N(CCC(=O)OCC)c4ccccn4)ccc3n2C)cc1.CS(=O)(=O)O [DABIGATRAN ETEXILATE MESYLATE]
32 | Compound NOT metabolized | COC(=O)[C@H]1[C@H]2C[C@@H]3c4[nH]c5cc(OC)ccc5c4CCN3C[C@H]2C[C@@H](OC(=O)c2cc(OC)c(OC)c(OC)c2)[C@@H]1OC [RESERPINE]
33 | Compound metabolized | NC(=O)N1c2ccccc2CC(=O)c2ccccc21 [OXCARBAZEPINE]

Conditions: human gut metagenome, 24 h, 2 µM
Remark: another data set of the same source

Row | Bacterial Biotransformation | SMILES
34 | Compound NOT metabolized | CCCCCCOC(=O)/N=C(/N)c1ccc(NCc2nc3cc(C(=O)N(CCC(=O)OCC)c4ccccn4)ccc3n2C)cc1.CS(=O)(=O)O [DABIGATRAN ETEXILATE MESYLATE]
35 | Compound NOT metabolized | COC(=O)[C@H]1[C@H]2C[C@@H]3c4[nH]c5cc(OC)ccc5c4CCN3C[C@H]2C[C@@H](OC(=O)c2cc(OC)c(OC)c(OC)c2)[C@@H]1OC [RESERPINE]
36 | Compound NOT metabolized | NC(=O)N1c2ccccc2CC(=O)c2ccccc21 [OXCARBAZEPINE]

Conditions: human gut metagenome, 24 h, 2 µM
Remark: another data set of the same source

Row | Bacterial Biotransformation | SMILES
37 | Compound metabolized | COC(=O)[C@H]1[C@H]2C[C@@H]3c4[nH]c5cc(OC)ccc5c4CCN3C[C@H]2C[C@@H](OC(=O)c2cc(OC)c(OC)c(OC)c2)[C@@H]1OC [RESERPINE]
38 | Compound NOT metabolized | NC(=O)N1c2ccccc2CC(=O)c2ccccc21 [OXCARBAZEPINE]

Conditions: human gut metagenome, 24 h, 2 µM
Remark: another data set of the same source

Row | Bacterial Biotransformation | SMILES
39 | Compound NOT metabolized | NC(=O)N1c2ccccc2CC(=O)c2ccccc21 [OXCARBAZEPINE]

Conditions: human gut metagenome, 24 h, 2 µM
Remark: another data set of the same source

Row | Bacterial Biotransformation | SMILES
40 | Compound NOT metabolized | NC(=O)N1c2ccccc2CC(=O)c2ccccc21 [OXCARBAZEPINE]

Conditions: human gut metagenome, 24 h, 2 µM
Remark: another data set of the same source

Row | Bacterial Biotransformation | SMILES
41 | Compound NOT metabolized | NC(=O)N1c2ccccc2CC(=O)c2ccccc21 [OXCARBAZEPINE]

Conditions: human gut metagenome, 24 h, 2 µM
Remark: another data set of the same source

Row | Bacterial Biotransformation | SMILES
42 | Compound NOT metabolized | NC(=O)N1c2ccccc2CC(=O)c2ccccc21 [OXCARBAZEPINE]

Conditions: human gut metagenome, 24 h, 2 µM
Remark: another data set of the same source

Row | Bacterial Biotransformation | SMILES
43 | Compound NOT metabolized | CCCCCCOC(=O)/N=C(/N)c1ccc(NCc2nc3cc(C(=O)N(CCC(=O)OCC)c4ccccn4)ccc3n2C)cc1.CS(=O)(=O)O [DABIGATRAN ETEXILATE MESYLATE]
44 | Compound NOT metabolized | COC(=O)[C@H]1[C@H]2C[C@@H]3c4[nH]c5cc(OC)ccc5c4CCN3C[C@H]2C[C@@H](OC(=O)c2cc(OC)c(OC)c(OC)c2)[C@@H]1OC [RESERPINE]
45 | Compound NOT metabolized | NC(=O)N1c2ccccc2CC(=O)c2ccccc21 [OXCARBAZEPINE]
